Experimental data taken from US11661426B2, “Imidazole-containing inhibitors of ALK2 kinase” (BioCryst Pharmaceuticals, Inc., priority 2017, dated 2023).

These molecules were tested against ALK2 (Homo sapiens (Human), UniProt Q04771) (assay: ALK2 inhibition, LanthaScreen Eu Kinase Binding Assay (ThermoFisher Scientific / Life Technologies)). Details: read-out: Measured Ki (IC50) Value for Compounds: IC50.
Experimental: Biochemical assays to measure the inhibitory effects of the compounds were performed by ThermoFisher Scientific (Life Technologies). ALK2 inhibition was tested using LanthaScreen™ Eu Kinase Binding Assay screening protocol.

ALK2, sequence (Q04771 21-509): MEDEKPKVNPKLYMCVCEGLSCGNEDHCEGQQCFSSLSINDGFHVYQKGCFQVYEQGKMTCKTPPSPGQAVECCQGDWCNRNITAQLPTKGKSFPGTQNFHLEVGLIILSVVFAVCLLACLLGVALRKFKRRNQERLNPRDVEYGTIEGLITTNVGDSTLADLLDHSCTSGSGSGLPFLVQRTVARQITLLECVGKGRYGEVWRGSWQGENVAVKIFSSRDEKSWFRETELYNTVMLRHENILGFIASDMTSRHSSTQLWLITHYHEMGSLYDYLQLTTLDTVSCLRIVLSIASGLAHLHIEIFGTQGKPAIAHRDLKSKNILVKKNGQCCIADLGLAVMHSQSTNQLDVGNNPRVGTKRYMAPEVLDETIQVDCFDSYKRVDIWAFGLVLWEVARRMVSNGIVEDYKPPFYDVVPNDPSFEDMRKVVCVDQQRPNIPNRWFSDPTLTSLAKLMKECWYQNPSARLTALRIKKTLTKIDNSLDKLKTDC

| SMILES | IC50 |
| --- | --- |
| OC[C@@H]1CCCN1c1nc(Nc2cn(-c3cn(C4CCC4)cn3)cn2)c2cccn2n1 [Compound 450d, (S)-(1-(4-((1′-cyclobutyl-1′H-[1,4′-biimidazol]-4-yl)amino)pyrrolo[2,1-f][1,2,4]triazin-2-yl)pyrrolidin-2-yl)methanol] | 100 to 1000 nM |
| OC[C@@H]1CCCN1c1nc(Nc2cn(-c3cn(C4CCCC4)cn3)cn2)c2cccn2n1 [Compound 451d, (S)-(1-(4-((1′-cyclopentyl-1′H-[1,4′-biimidazol]-4-yl)amino)pyrrolo[2,1-f][1,2,4]triazin-2-yl)pyrrolidin-2-yl)methanol] | 100 to 1000 nM |
| OC[C@@H]1CCCN1c1nc(Nc2cn(-c3cn(C4CCCCC4)cn3)cn2)c2cccn2n1 [Compound 452d, (S)-(1-(4-((1′-cyclohexyl-1′H-[1,4′-biimidazol]-4-yl)amino)pyrrolo[2,1-f][1,2,4]triazin-2-yl)pyrrolidin-2-yl)methanol] | 100 to 1000 nM |
| OC[C@@H]1CCCN1c1nc(Nc2nccs2)c2cccn2n1 [Compound 455c, (S)-(1-(4-(thiazol-2-ylamino)pyrrolo[2,1-f][1,2,4]triazin-2-yl)pyrrolidin-2-yl)methanol] | 100 to 1000 nM |
| COC(=O)c1cnc(Nc2nc(N3CCC[C@H]3CO)nn3cccc23)s1 [Compound 455d, (S)-methyl 2-((2-(2-(hydroxymethyl)pyrrolidin-1-yl)pyrrolo[2,1-f][1,2,4]triazin-4-yl)amino)thiazole-5-carboxylate] | > 1000 nM |
| COc1cc(-n2cnc(Nc3nc(N4CCC[C@H]4CO)c4c(C)nn([C@H]5C[C@H](O)C5)c4n3)c2)cc(OC)c1OC [Compound 465c, (trans)-3-(4-((S)-2-(hydroxymethyl)pyrrolidin-1-yl)-3-methyl-6-((1-(3,4,5-trimethoxyphenyl)-1H-imidazol-4-yl)amino)-1H-pyrazolo[3,4-d]pyrimidin-1-yl)cyclobutanol] | < 100 nM |
| COc1cc(-n2cnc(Nc3nc(N4CCC[C@H]4CO)c4c(C)nn([C@H]5C[C@@H](O)C5)c4n3)c2)cc(OC)c1OC [Compound 466c, (cis)-3-(4-((S)-2-(hydroxymethyl)pyrrolidin-1-yl)-3-methyl-6-((1-(3,4,5-trimethoxyphenyl)-1H-imidazol-4-yl)amino)-1H-pyrazolo[3,4-d]pyrimidin-1-yl)cyclobutanol] | < 100 nM |
| O=C(c1cnc(Nc2nc(N3CCC[C@H]3CO)nn3cccc23)s1)N1CCC[C@H]1CO [Compound 467c, ((S)-2-(hydroxymethyl)pyrrolidin-1-yl)(2-((2-((S)-2-(hydroxymethyl)pyrrolidin-1-yl)pyrrolo[2,1-f][1,2,4]triazin-4-yl)amino)thiazol-5-yl)methanone] | > 1000 nM |
| CNC(=O)c1cc(C2CC2)cc(-n2cnc(Nc3nc(N4CCC[C@H]4CO)nn4cccc34)c2)c1 [Compound 468g, (S)-3-cyclopropyl-5-(4-((2-(2-(hydroxymethyl)pyrrolidin-1-yl)pyrrolo[2,1-f][1,2,4]triazin-4-yl)amino)-1H-imidazol-1-yl)-N-methylbenzamide] | > 1000 nM |
| O=C1OCc2ccc(-n3cnc(Nc4nc(N5CCC[C@H]5CO)nn5cccc45)c3)cc21 [Compound 469g, (S)-6-(4-((2-(2-(hydroxymethyl)pyrrolidin-1-yl)pyrrolo[2,1-f][1,2,4]triazin-4-yl)amino)-1H-imidazol-1-yl)isobenzofuran-1(3H)-one] | 100 to 1000 nM |
| OC[C@@H]1CCCN1c1nc(Nc2cn([C@H]3CC[C@H](O)CC3)cn2)c2cccn2n1 [Compound 470e, (trans)-4-(4-((2-((S)-2-(hydroxymethyl)pyrrolidin-1-yl)pyrrolo[2,1-f][1,2,4]triazin-4-yl)amino)-1H-imidazol-1-yl)cyclohexanol] | 100 to 1000 nM |
| OC[C@@H]1CCCN1c1nc(Nc2cn([C@H]3C[C@H](O)C3)cn2)c2cccn2n1 [Compound 471e, (trans)-3-(4-((2-((S)-2-(hydroxymethyl)pyrrolidin-1-yl)pyrrolo[2,1-f][1,2,4]triazin-4-yl)amino)-1H-imidazol-1-yl)cyclobutanol] | < 100 nM |

Continued, values first:

| IC50 | SMILES |
| --- | --- |
| < 100 nM | COc1cc(-n2cnc(Nc3nc(N4CCC[C@H]4CO)c4c(C)nn([C@H]5C[C@H](N)C5)c4n3)c2)cc(OC)c1OC [Compound 445c, ((S)-1-(1-((trans)-3-aminocyclobutyl)-3-methyl-6-((1-(3,4,5-trimethoxyphenyl)-1H-imidazol-4-yl)amino)-1H-pyrazolo[3,4-d]pyrimidin-4-yl)pyrrolidin-2-yl)methanol] |
| < 100 nM | COc1cc(-n2cnc(Nc3nc(N4CCC[C@H]4CO)c4c(C)nn(C5CCOC5)c4n3)c2)cc(OC)c1OC (stereo partly drawn) [Compound 446c, ((2S)-1-(3-methyl-1-(tetrahydrofuran-3-yl)-6-((1-(3,4,5-trimethoxyphenyl)-1H-imidazol-4-yl)amino)-1H-pyrazolo[3,4-d]pyrimidin-4-yl)pyrrolidin-2-yl)methanol] |
| < 100 nM | COc1cc(-n2cnc(Nc3nc(N4CCC[C@H]4CO)c4c(C)nn([C@H]5CC[C@@H](O)CC5)c4n3)c2)cc(OC)c1OC [Compound 447c, (cis)-4-(4-((S)-2-(hydroxymethyl)pyrrolidin-1-yl)-3-methyl-6-((1-(3,4,5-trimethoxyphenyl)-1H-imidazol-4-yl)amino)-1H-pyrazolo[3,4-d]pyrimidin-1-yl)cyclohexanol] |
| < 100 nM | OC[C@@H]1CCCN1c1nc(Nc2cn(-c3ccnc4ccccc34)cn2)c2cccn2n1 [Compound 448e, (S)-(1-(4-((1-(quinolin-4-yl)-1H-imidazol-4-yl)amino)pyrrolo[2,1-f][1,2,4]triazin-2-yl)pyrrolidin-2-yl)methanol] |
| < 100 nM | OC[C@@H]1CCCN1c1nc(Nc2cn(-c3cn(C4CC4)cn3)cn2)c2cccn2n1 [Compound 449d, (S)-(1-(4-((1′-cyclopropyl-1′H-[1,4′-biimidazol]-4-yl)amino)pyrrolo[2,1-f][1,2,4]triazin-2-yl)pyrrolidin-2-yl)methanol] |
| < 100 nM | COc1cc(-n2cnc(Nc3nc(N4CCC[C@H]4CO)nc4c3cnn4CC3CCCCC3)c2)cc(OC)c1OC [Compound 453d, (S)-(1-(1-(cyclohexylmethyl)-4-((1-(3,4,5-trimethoxyphenyl)-1H-imidazol-4-yl)amino)-1H-pyrazolo[3,4-d]pyrimidin-6-yl)pyrrolidin-2-yl)methanol] |
| < 100 nM | COc1cc(-n2cnc(Nc3nc(N4CCC[C@H]4CO)c4c(C)nn(C5CCOCC5)c4n3)c2)cc(OC)c1OC [Compound 454c, (S)-(1-(3-methyl-1-(tetrahydro-2H-pyran-4-yl)-6-((1-(3,4,5-trimethoxyphenyl)-1H-imidazol-4-yl)amino)-1H-pyrazolo[3,4-d]pyrimidin-4-yl)pyrrolidin-2-yl)methanol] |
| < 100 nM | COc1cc(-n2cnc(Nc3nc(N4CCC[C@H]4CO)c4c(C)nn(C(C)C)c4n3)c2)cc(OC)c1OC [Compound 456c, (S)-(1-(1-isopropyl-3-methyl-6-((1-(3,4,5-trimethoxyphenyl)-1H-imidazol-4-yl)amino)-1H-pyrazolo[3,4-d]pyrimidin-4-yl)pyrrolidin-2-yl)methanol] |
| < 100 nM | COc1cc(-n2cnc(Nc3nc(N4CCC[C@H]4CO)nc4c3cnn4[C@H]3CC[C@@H](O)CC3)c2)cc(OC)c1OC [Compound 457c, (cis)-4-(6-((S)-2-(hydroxymethyl)pyrrolidin-1-yl)-4-((1-(3,4,5-trimethoxyphenyl)-1H-imidazol-4-yl)amino)-1H-pyrazolo[3,4-d]pyrimidin-1-yl)cyclohexanol] |
| < 100 nM | CCn1nc(C)c2c(N3CCC[C@H]3CO)nc(Nc3cn(-c4cc(OC)c(OC)c(OC)c4)cn3)nc21 [Compound 458c, (S)-(1-(1-ethyl-3-methyl-6-((1-(3,4,5-trimethoxyphenyl)-1H-imidazol-4-yl)amino)-1H-pyrazolo[3,4-d]pyrimidin-4-yl)pyrrolidin-2-yl)methanol] |
| < 100 nM | COc1cc(-n2cnc(Nc3nc(N4CCC[C@H]4CO)c4c(C)nn(C5CC(F)(F)C5)c4n3)c2)cc(OC)c1OC [Compound 459c, (S)-(1-(1-(3,3-difluorocyclobutyl)-3-methyl-6-((1-(3,4,5-trimethoxyphenyl)-1H-imidazol-4-yl)amino)-1H-pyrazolo[3,4-d]pyrimidin-4-yl)pyrrolidin-2-yl)methanol] |
| < 100 nM | COc1cc(-n2cnc(Nc3nc(N4CCC[C@@H]4CO)c4c(C)nn(C5CCC5)c4n3)c2)cc(OC)c1OC [Compound 460d, (R)-(1-(1-cyclobutyl-3-methyl-6-((1-(3,4,5-trimethoxyphenyl)-1H-imidazol-4-yl)amino)-1H-pyrazolo[3,4-d]pyrimidin-4-yl)pyrrolidin-2-yl)methanol] |
| < 100 nM | COc1cc(-c2cnc(Nc3nc(N4CCC[C@H]4CO)nn4cccc34)s2)cc(OC)c1OC [Compound 461c, (S)-(1-(4-((5-(3,4,5-trimethoxyphenyl)thiazol-2-yl)amino)pyrrolo[2,1-f][1,2,4]triazin-2-yl)pyrrolidin-2-yl)methanol] |
| < 100 nM | COc1cc(-n2cnc(Nc3nc(N4CCC[C@H]4CO)nc4c3ccn4CC3CCCCC3)c2)cc(OC)c1OC [Compound 462c, (S)-(1-(7-(cyclohexylmethyl)-4-((1-(3,4,5-trimethoxyphenyl)-1H-imidazol-4-yl)amino)-7H-pyrrolo[2,3-d]pyrimidin-2-yl)pyrrolidin-2-yl)methanol] |
| < 100 nM | COc1cc(-n2cnc(Nc3nc(N4CCC[C@H]4CO)c4c(C)nn(CC5CC5)c4n3)c2)cc(OC)c1OC [Compound 463c, (S)-(1-(1-(cyclopropylmethyl)-3-methyl-6-((1-(3,4,5-trimethoxyphenyl)-1H-imidazol-4-yl)amino)-1H-pyrazolo[3,4-d]pyrimidin-4-yl)pyrrolidin-2-yl)methanol] |
| < 100 nM | COc1cc(-n2cnc(Nc3nc(N4CCC[C@H]4CO)c4cnn(C5CCC5)c4n3)c2)cc(OC)c1OC [Compound 464d, (S)-(1-(1-cyclobutyl-6-((1-(3,4,5-trimethoxyphenyl)-1H-imidazol-4-yl)amino)-1H-pyrazolo[3,4-d]pyrimidin-4-yl)pyrrolidin-2-yl)methanol] |
